# Reference: patent US8017611B2, “Pyridine and pyrazine derivatives -083” (AstraZeneca AB, priority 2007, dated 2011)
# Marks after values point to notes of the source that are not given here.
# Molecular target: T1, recombinant Axl tyrosine kinase (Homo sapiens, UniProt P30530)
# T1 construct: encompassing amino acids 473 to 894 of Axl; GST (N); made in house; host or cells: SF126 insect cells
# T1 sequence (P30530 473-894): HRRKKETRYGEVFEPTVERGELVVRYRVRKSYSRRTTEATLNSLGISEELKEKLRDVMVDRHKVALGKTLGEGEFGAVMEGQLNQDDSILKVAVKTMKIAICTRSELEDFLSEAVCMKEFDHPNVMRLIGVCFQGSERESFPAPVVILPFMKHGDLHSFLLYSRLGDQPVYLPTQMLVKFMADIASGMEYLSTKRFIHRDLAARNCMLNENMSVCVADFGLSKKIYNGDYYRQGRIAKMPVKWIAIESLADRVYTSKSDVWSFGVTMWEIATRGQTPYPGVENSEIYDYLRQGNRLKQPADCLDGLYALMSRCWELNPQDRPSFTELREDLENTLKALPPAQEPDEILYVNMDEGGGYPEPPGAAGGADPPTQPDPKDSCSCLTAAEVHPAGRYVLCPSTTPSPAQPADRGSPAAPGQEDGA
# Assay: In vitro Axl kinase assay (AlphaScreen), Test (a)
# Format: biochemical
# Settings: 1 μM; mean calculated from a larger number of replicates than the first value
row,Compound,"% Axl tyrosine kinase inhibition at 1 μM concentration (second value, †)"
1,Nc1ncc(-c2cccc(N3CCOCC3)c2)cc1-c1nc2ccccc2o1 [Example 2.49],94.5%

# Same assay, conditions: test compound at 1 μM; first value quoted
row,Compound,% Axl tyrosine kinase inhibition at 1 μM concentration
1,CN1C2CCC1CC(Oc1ccc(-c3cnc(N)c(-c4nc5ncccc5o4)c3)cc1)C2 (stereo not shown) [Example 43B.21],99.6%
2,CN1CCC(n2cc(-c3cnc(N)c(-c4nc5c(C#N)cccc5o4)c3)cn2)CC1 [Example 41.25],99.8%
3,Nc1ncc(-c2ccc(C(=O)N3CCC4(CCNC4)CC3)cc2)cc1-c1nc2cccnc2o1 [Example 45A.89],91.7%
4,Nc1ncc(-c2cccc(CN3CCCC3)c2)cc1-c1nc2cnccc2o1 [Example 8A.1],95.6%
5,CN(C)CCCn1cc(-c2cnc(N)c(-c3nc4ccccc4o3)c2)cn1 [Example 27.4],99.2%
6,Nc1ncc(-c2cccc(N3CCOCC3)c2)cc1-c1nc2ccccc2o1 [Example 2.49],93.6%
7,CN1CCC(n2cc(-c3cnc(N)c(-c4nc5ccc(OC(F)(F)F)cc5o4)c3)cn2)CC1 [Example 7.10],95.7%
8,COCCN1CCN(C(=O)c2ccc(-c3cnc(N)c(-c4nc5cccnc5o4)c3)cc2)CC1 [Example 45A.59],88.8%
9,COc1cccc2oc(-c3cc(-c4cnn(C5CCN(C)CC5)c4)cnc3N)nc12 [Example 41.24],92.1%
10,CO[C@H](C)C(=O)N1CCC(n2cc(-c3cnc(N)c(-c4nc5cccnc5o4)c3)cn2)CC1 [Example 59.9],99.1%
11,CN1CCCC(Cn2cc(-c3cnc(N)c(-c4nc5ccccc5o4)c3)cn2)C1 (stereo not shown) [Example 27.1],100.0%
12,CS(=O)(=O)c1cccc(-c2cnc(N)c(-c3nc4ccccc4o3)c2)c1 [Example 2.48],97.1%
13,CN1CCOC(CNC(=O)c2ccc(-c3cnc(N)c(-c4nc5cccnc5o4)c3)cc2)C1 (stereo not shown) [Example 45A.28],97.5%
14,Nc1ncc(-c2ccc(C(=O)NCCCN3CCNCC3)cc2)cc1-c1nc2cccnc2o1 [Example 45A.101],99.1%
15,CC(C)c1ccc2nc(-c3cc(-c4cnn(C5CCN(C)CC5)c4)cnc3N)oc2c1 [Example 7.4],99.6%
16,Nc1ncc(-c2cccc3ccccc23)cc1-c1nc2ccccc2o1 [Example 2.43],9.8*** %
17,COCCC(=O)N1CCC(n2cc(-c3cnc(N)c(-c4nc5cccnc5o4)c3)cn2)CC1 [Example 59.8],98.2%
18,COCCOCC(=O)N1CCC(n2cc(-c3cnc(N)c(-c4nc5ncccc5o4)c3)cn2)CC1 [Example 59.5],99.7%
19,CS(=O)(=O)c1cccc(-c2cnc(N)c(-c3nc4ccccc4o3)n2)c1 [Example 20.9],92.1%
20,Nc1ncc(-c2ccc(C(=O)N3CCC4(CCCNC4)CC3)cc2)cc1-c1nc2cccnc2o1 [Example 45A.87],77.4%
21,COc1cc(-c2cnc(N)c(-c3nc4ncccc4o3)c2)ccc1OCCN [Example 43C.21],99.3%
22,CCN(CC)C1CCN(C(=O)c2ccc(-c3cnc(N)c(-c4nc5cccnc5o4)c3)cc2)C1 (stereo not shown) [Example 45A.33],97.7%
23,Cc1nn(C2CCN(C)CC2)cc1-c1cnc(N)c(-c2nc3c(C#N)cccc3o2)c1 [Example 41.40],99.2%
24,Nc1ncc(-c2ccc(OC[C@H]3CCCN3)cc2)cc1-c1nc2ncccc2o1 [Example 43B.28],98.7%

row,Compound,% Axl tyrosine kinase inhibition at 1 μM concentration
1,CN(C)c1cccc(-c2cnc(N)c(-c3nc4ccccc4o3)c2)c1 [Example 2.50],90.0%
2,Nc1ncc(-c2cccc(C(=O)NC3CC3)c2)cc1-c1nc2cnccc2o1 [Example 8A.7],87.8%
3,Cc1nn(C2CCNCC2)cc1-c1cnc(N)c(-c2nc3ncccc3o2)c1 [Example 25.16],99.9%
4,Nc1ncc(-c2ccc(OCCN3CCCC3)cc2)cc1-c1nc2cccnc2o1 [Example 43A.3],98.7%
5,CN1CCC(n2cc(-c3cnc(N)c(-c4nc5ccc(Cl)cc5o4)c3)cn2)CC1 [Example 7.7],99.0%
6,Nc1ncc(-c2ccc(C(=O)N3CCN(Cc4ccccn4)CC3)cc2)cc1-c1nc2cccnc2o1 [Example 45A.60],98.1%
7,Nc1ncc(-c2ccc(OCCOCCN3CCNCC3)cc2)cc1-c1nc2ncccc2o1 [Example 43B.43],92.3%
8,COCCC(=O)N1CCC(n2cc(-c3cnc(N)c(-c4nc5ncccc5o4)c3)cn2)CC1 [Example 59.1],99.3%
9,COc1cc(-c2cnc(N)c(-c3nc4ncccc4o3)c2)ccc1OCCN1CCCC1 [Example 43C.5],99.7%
10,COc1cc(-c2cnc(N)c(-c3nc4ncccc4o3)c2)ccc1OCCCN1CCNCC1 [Example 43C.32],99.8%
11,CN1CCC(n2cc(-c3cnc(N)c(-c4nc5ccc(F)c(F)c5o4)c3)cn2)CC1 [Example 41.16],98.3%
12,Nc1ncc(-c2ccc(C(=O)N3CC4CNCC4C3)cc2)cc1-c1nc2cccnc2o1 (stereo not shown) [Example 45A.94],98.9%
13,CN(C)CCC(=O)N1CCC(n2cc(-c3cnc(N)c(-c4nc5ncccc5o4)c3)cn2)CC1 [Example 59.6],99.9%
14,Nc1ncc(-c2ccc3c(c2)OCO3)cc1-c1nc2ccccc2o1 [Example 2.42],15.8** %
15,Nc1ncc(-c2cccc(CN3CCOCC3)c2)nc1-c1nc2ccccc2o1 [Example 20.10],99.1%
16,Nc1ncc(-c2ccc3[nH]ncc3c2)cc1-c1nc2ccccc2o1 [Example 2.23],87.2%
17,CN1CCC(n2cc(-c3cnc(N)c(-c4nc5cnccc5o4)c3)cn2)CC1 [Example 41.1],99.8%
18,CCS(=O)(=O)c1ccc(-c2cnc(N)c(-c3nc4ccccc4o3)c2)cc1 [Example 2.1],93.7%
19,Nc1ncc(-c2cnn(C3CCN(CCO)CC3)c2)cc1-c1nc2ncccc2o1 [Example 53.5],100.0%
20,CN1CCCN(C(=O)c2ccc(-c3cnc(N)c(-c4nc5cccnc5o4)c3)cc2)CC1 [Example 45A.65],98.3%
21,CC(C)(C)OC(=O)N1CCC(C(=O)Nc2cccc(-c3cnc(N)c(-c4nc5ccncc5o4)c3)c2)CC1 [Example 11A.3],87.7%
22,Cc1nn(C2CCN(C)CC2)cc1-c1cnc(N)c(-c2nc3cccnc3o2)c1 [Example 41.20],99.7%
23,COc1cc(N2CCNCC2)ccc1-c1cnc(N)c(-c2nc3ccccc3o2)c1 [Example 2.38],99.0%

# Same assay, conditions: test compound at 1 μM; first value quoted; read-out: % Axl tyrosine kinase inhibition at 1 μM concentration
row,Compound,inhibition at 1 µM
1,"Nc1ncc(-c2cn(C3CCNCC3)nn2)cc1-c1nc2ccccc2o1 [Example 40, 3-(1,3-benzoxazol-2-yl)-5-[1-(4-piperidyl)triazol-4-yl]pyridin-2-amine]",100%
2,"CN1CCN(c2ncc(-c3cnc(N)c(-c4nc5ccccc5o4)c3)s2)CC1 [Example 25.5, 3-(1,3-benzoxazol-2-yl)-5-[2-(4-methylpiperazin-1-yl)thiazol-5-yl]pyridin-2-amine]",82.9%
3,"Nc1ncc(-c2cnn(C3CCNCC3)c2)cc1-c1nc2ccncc2o1 [Example 11, 3-Oxazolo[5,4-c]pyridin-2-yl-5-[1-(4-piperidyl)pyrazol-4-yl]pyridin-2-amine]",99%
4,"Nc1ncc(-c2cnn(CCCO)c2)cc1-c1nc2ccccc2o1 [Example 29.1, 3-[4-[6-amino-5-(1,3-benzoxazol-2-yl)-3-pyridyl]pyrazol-1-yl]propan-1-ol]",99.7%
5,"Nc1ncc(-c2cnn(C3CCCCO3)c2)cc1-c1nc2ccccc2o1 (stereo not shown) [Example 2.55, 3-(1,3-benzoxazol-2-yl)-5-(1-tetrahydropyran-2-ylpyrazol-4-yl)pyridin-2-amine]",99.2%
6,"CC(O)c1nn(C2CCNCC2)cc1-c1cnc(N)c(-c2nc3ccccc3o2)c1 (stereo not shown) [Example 60, 1-[4-[6-amino-5-(1,3-benzoxazol-2-yl)-3-pyridyl]-1-(4-piperidyl)pyrazol-3-yl]ethanol]",99.8%
7,"CNC(=O)[C@@H]1C[C@@H](n2cc(-c3cnc(N)c(-c4nc5ccccc5o4)c3)cn2)CN1C [Example 39, (2S,4R)-4-[4-[6-amino-5-(1,3-benzoxazol-2-yl)-3-pyridyl]pyrazol-1-yl]-N,1-dimethyl-pyrrolidine-2-carboxamide]",99.9%
8,"Nc1ncc(-c2cn(C3CCNCC3)nc2CO)cc1-c1nc2ccccc2o1 [Example 25.13, [4-[6-amino-5-(1,3-benzoxazol-2-yl)-3-pyridyl]-1-(4-piperidyl)pyrazol-3-yl]methanol]",100%

# Same assay, conditions: test compound at 30 μM
row,Compound,% of Axl tyrosine kinase activity inhibited at a concentration of 30 μM
1,Nc1ncc(-c2cccc3ccccc23)cc1-c1nc2ccccc2o1 [Example 2.43],***the compound disclosed in Example 2.43 inhibited 57% of Axl tyrosine kinase activity at a concentration of 30 μM.
2,Nc1ncc(-c2ccc3c(c2)OCO3)cc1-c1nc2ccccc2o1 [Example 2.42],**the compound disclosed in Example 2.42 inhibited 53.6% of Axl tyrosine kinase activity at a concentration of 30 μM.
